molecular target: T1, PRMT5-MEP50 enzyme (Homo sapiens, UniProt O14744); assay: High throughput mass spectrometer assay of PRMT5-MEP50 enzyme activity (SAH formation); type: biochemical; conditions: averaged values; inhibition of SAH formation; 1 μM SAM, 0.3 μM H2A, 1.25 nM enzyme, 30° C.
T1 construct: One virus expresses full length human PRMT5 with Flag-tag at N-terminus; Flag (N); purchased Charles River (Argenta); host or cells: insect cells (Sf9), baculovirus co-infection
From the text: Reagents. PRMT5-MEP50 enzyme was purchased from Charles River (Argenta). The enzyme complex was produced in insect cells (Sf9) infected simultaneously with two baculoviruses. One virus expresses full length human PRMT5 with Flag-tag at N-terminus, the second virus expresses full length MEP50 with His6-TEV cleavage at N-terminus. The protein was affinity purified using anti-Flag (M2) beads eluted with 3×FLAG peptide, followed by His-Select eluted with 0.5M imidazole. Eluted protein was then dialysed against tris-buffered saline (TBS) (pH 8.0) containing 20% glycerol and 3 mM dithiothreitol (DTT).
Full-length untagged human recombinant histone H2A (residues 1-130, Genbank Accession #NM_021052, MW=14.1 kDa) expressed in E. coli was purchased from Reaction Biology Corporation, Cat #HMT-11-146. Reagents used for making reaction buffer or stopping reaction were purchased including Tris base (Sigma Cat #T-1503), NaCl (Sigma Cat #RGF-3270), MgCl2 (Sigma Cat #M0250), DTT (Invitrogen Cat #15508-013) and Formic Acid (Riedel deHaen, Cat #33015)
High Throughput Mass Spectrometer Assay PRMT5 catalyzes the sequential methylations of the terminal nitrogen atoms on the guanidine groups of arginine residues within proteins using co-substrate S-adenosyl-L-methionine (AdoMet, SAM), forming mono-methyl (MMA), symmetric-dimethyl arginine (sDMA) and S-adenosyl-L-homocysteine (AdoHcy, SAH). The enzyme activity was determined by following the product SAH formation using high throughput mass spectrometry (Agilent Rapidfire 300 System coupled to a Sciex 4000 series QTrap® triple-quad MS/MS). The reaction buffer was 20 mM Tris-HCl, pH 8.5, 50 mM NaCl. 5 mM MgCl2 and 1 mM DTT. The reaction activity was stopped using 1% formic acid (final concentration).
Inhibition Studies. The IC50 Studies were performed using eleven point dosing series made for each compound by serially diluted 1:2 in dimethyl sulfoxide (DMSO), with point 12 being a DMSO control. Compounds were first spotted to plates, and followed by addition of 2 μM SAM and 0.6 μM H2A (histone H2A) solution mixture. The same volume of enzyme solution was added to initiate the enzymatic reactions. The final concentrations of the reaction are at 1 μM SAM, 0.3 μM H2A and 1.25 nM enzyme. The reaction was incubated at 30° C. for 60 minutes (min) when 10 nM enzyme was used and for 120 min when 1.25 nM enzyme was used. Subsequently, the reaction was quenched by addition of formic acid to a final concentration of 1%. The inhibitions of SAH formation in the presence of compounds were calculated as a percentage of the control relative to the uninhibited reaction as a function of inhibitor concentration. The data were fit as follows: Y=Bottom+(Top−Bottom)/(1+10^((log IC50−X)*h))
where IC50 is the inhibitor concentration (same unit as X) at 50% inhibition and h is the Hill slope. Y is percent of inhibition, X is log of compound concentration. Bottom and Top are the plateaus in same units as Y.
The pIC50 values in the Table below are averaged values (Co. No. means compound number: n.d. means not determined)

T1 sequence (O14744 whole entry): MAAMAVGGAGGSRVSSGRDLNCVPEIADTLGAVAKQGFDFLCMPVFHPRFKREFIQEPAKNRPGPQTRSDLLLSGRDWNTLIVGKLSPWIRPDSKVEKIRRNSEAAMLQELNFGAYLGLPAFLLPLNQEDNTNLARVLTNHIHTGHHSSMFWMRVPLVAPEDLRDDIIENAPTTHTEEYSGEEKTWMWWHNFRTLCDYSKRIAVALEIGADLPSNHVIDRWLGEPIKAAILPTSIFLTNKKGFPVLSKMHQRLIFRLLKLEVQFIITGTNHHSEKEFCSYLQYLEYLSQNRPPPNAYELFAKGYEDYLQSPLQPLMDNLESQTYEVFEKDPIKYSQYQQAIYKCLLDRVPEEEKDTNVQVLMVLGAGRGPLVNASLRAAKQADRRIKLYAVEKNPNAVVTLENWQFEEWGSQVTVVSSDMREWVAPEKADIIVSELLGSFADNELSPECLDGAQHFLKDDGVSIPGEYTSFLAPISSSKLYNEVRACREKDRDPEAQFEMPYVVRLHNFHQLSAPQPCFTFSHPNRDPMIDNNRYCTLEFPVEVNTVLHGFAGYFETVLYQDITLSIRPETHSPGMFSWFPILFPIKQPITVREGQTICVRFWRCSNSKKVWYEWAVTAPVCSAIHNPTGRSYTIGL
T1 sequence (Q9BQA1 whole entry partner): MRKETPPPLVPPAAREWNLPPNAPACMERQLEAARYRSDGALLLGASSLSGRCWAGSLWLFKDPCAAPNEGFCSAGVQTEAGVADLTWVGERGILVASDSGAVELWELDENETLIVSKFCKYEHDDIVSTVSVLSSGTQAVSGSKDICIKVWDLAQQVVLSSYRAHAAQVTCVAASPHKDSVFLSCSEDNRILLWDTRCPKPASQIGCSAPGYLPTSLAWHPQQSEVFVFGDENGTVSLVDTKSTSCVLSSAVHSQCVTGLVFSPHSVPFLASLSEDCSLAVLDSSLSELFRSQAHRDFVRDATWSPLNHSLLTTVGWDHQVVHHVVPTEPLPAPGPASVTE

| pIC50 | IC50 | SMILES |
| --- | --- | --- |
| 5.69 | – | Cl.Nc1ncnc2c1ccn2[C@@H]1CC2(CC(Cn3c(Cl)cccc3=O)C2)[C@@H](O)[C@H]1O (mixture of isomers) [Compound 32] |
| – | 933 nM | Nc1ncnc2c1ccn2[C@@H]1C[C@]2(C[C@H](CO)C2)[C@@H](O)[C@H]1O (single isomer, unassigned) [Compound 35] |
| – | 1410 nM | Nc1ncnc2c1ccn2[C@@H]1C[C@]2(C[C@@H](CO)C2)[C@@H](O)[C@H]1O (single isomer, unassigned) [Compound 36] |
| – | 3020 nM | Nc1ncnc2c1ncn2[C@@H]1O[C@]2(C[C@@H](OCc3ccccc3)C2)[C@@H](O)[C@H]1O [Compound 1] |
| – | 30.9 nM | Nc1ccc2ccc(O[C@H]3C[C@]4(C3)O[C@@H](n3cnc5c(N)ncnc53)[C@H](O)[C@@H]4O)cc2n1 [Compound 2] |
| – | 8130 nM | Nc1ncnc2c1ncn2[C@@H]1O[C@]2(C[C@@H](Oc3ccc4ccc(Cl)nc4c3)C2)[C@@H](O)[C@H]1O [Compound 3] |
| – | 3020 nM | Nc1ncnc2c1ncn2[C@@H]1O[C@]2(C[C@@H](Oc3ccc4cc(Br)cnc4c3)C2)[C@@H](O)[C@H]1O [Compound 4] |
| – | 9.33 nM | Nc1ccc2ccc(O[C@H]3C[C@@]4(C3)O[C@@H](n3cnc5c(N)ncnc53)[C@H](O)[C@@H]4O)cc2n1 [Compound 5] |
| – | 120 nM | Nc1ncnc2c1ncn2[C@@H]1O[C@]2(C[C@H](Oc3ccc4cc(Br)cnc4c3)C2)[C@@H](O)[C@H]1O [Compound 6] |
| – | 5010 nM | Nc1ncnc2c1ncn2[C@@H]1O[C@]2(C[C@@H](O)C2)[C@@H](O)[C@H]1O [Compound 7] |
| – | 3550 nM | Nc1ncnc2c1ncn2[C@@H]1O[C@]2(C[C@H](O)C2)[C@@H](O)[C@H]1O [Compound 8] |
| – | 257 nM | Nc1ncnc2c1ncn2[C@@H]1O[C@]2(C[C@H](Oc3ccc4cc(Cl)cnc4c3)C2)[C@@H](O)[C@H]1O [Compound 9] |
| – | 91.2 nM | Nc1ncnc2c1ccn2[C@@H]1C[C@]2(C[C@H](Oc3ccc4cccnc4c3)C2)[C@@H](O)[C@H]1O [Compound 11] |
| – | 2400 nM | Nc1ncnc2c1ccn2[C@@H]1C[C@]2(C[C@H](Oc3ccc4cc(Cl)cnc4c3)C2)[C@@H](O)[C@H]1O [Compound 12] |
| – | 646 nM | Nc1ncnc2c1ccn2[C@@H]1C[C@]2(C[C@@H](Oc3ccc4cc(Cl)cnc4c3)C2)[C@@H](O)[C@H]1O [Compound 13] |
| – | 2000 nM | Nc1ncnc2c1ccn2[C@@H]1C[C@]2(C[C@H](Cc3ccc4cc(Cl)cnc4c3)C2)[C@@H](O)[C@H]1O [Compound 14] |
| – | 1100 nM | Nc1ncnc2c1ccn2[C@@H]1C[C@]2(C[C@@H](Cc3ccc4cc(Cl)cnc4c3)C2)[C@@H](O)[C@H]1O [Compound 15] |
| – | 490 nM | Nc1ncnc2c1ccn2[C@@H]1C[C@]2(C[C@H](Cc3ccc4scnc4c3)C2)[C@@H](O)[C@H]1O [Compound 16] |

| pIC50 | IC50 | SMILES |
| --- | --- | --- |
| – | 389 nM | Nc1ncnc2c1ccn2[C@@H]1C[C@]2(C[C@@H](Cc3ccc4scnc4c3)C2)[C@@H](O)[C@H]1O [Compound 17] |
| – | 35.5 nM | Nc1nc2cc(C[C@H]3C[C@]4(C[C@@H](n5ccc6c(N)ncnc65)[C@H](O)[C@@H]4O)C3)ccc2s1 [Compound 18] |
| – | 132 nM | Nc1nc2cc(C[C@H]3C[C@@]4(C[C@@H](n5ccc6c(N)ncnc65)[C@H](O)[C@@H]4O)C3)ccc2s1 [Compound 19] |
| – | 490 nM | Nc1ncnc2c1ccn2[C@@H]1C[C@]2(C[C@H](Cc3ccc4ncsc4c3)C2)[C@@H](O)[C@H]1O [Compound 20] |
| – | 145 nM | Nc1ncnc2c1ccn2[C@@H]1C[C@]2(C[C@@H](Cc3ccc4ncsc4c3)C2)[C@@H](O)[C@H]1O [Compound 21] |
| – | 1580 nM | Nc1nc2ccc(C[C@H]3C[C@]4(C[C@@H](n5ccc6c(N)ncnc65)[C@H](O)[C@@H]4O)C3)cc2s1 [Compound 22] |
| – | 295 nM | Nc1nc2ccc(C[C@H]3C[C@@]4(C[C@@H](n5ccc6c(N)ncnc65)[C@H](O)[C@@H]4O)C3)cc2s1 [Compound 23] |
| – | 9.12 nM | Nc1ncnc2c1ccn2[C@@H]1C[C@]2(C[C@H](Cc3ccn4ccnc4c3)C2)[C@@H](O)[C@H]1O [Compound 24] |
| – | 10.2 nM | Nc1ncnc2c1ccn2[C@@H]1C[C@]2(C[C@@H](Cc3ccn4ccnc4c3)C2)[C@@H](O)[C@H]1O [Compound 25] |
| – | 2450 nM | Nc1ncnc2c1ccn2[C@@H]1C[C@]2(C[C@H](Cc3ccccn3)C2)[C@@H](O)[C@H]1O [Compound 26] |
| – | 5620 nM | Nc1ncnc2c1ccn2[C@@H]1C[C@]2(C[C@@H](Cc3ccccn3)C2)[C@@H](O)[C@H]1O [Compound 27] |
| – | 145 nM | Nc1ncnc2c1ccn2[C@@H]1C[C@]2(C[C@H](Cc3cccnc3)C2)[C@@H](O)[C@H]1O [Compound 28] |
| – | 170 nM | Nc1ncnc2c1ccn2[C@@H]1C[C@]2(C[C@@H](Cc3cccnc3)C2)[C@@H](O)[C@H]1O [Compound 29] |
| – | 1620 nM | Nc1ncnc2c1ccn2[C@@H]1C[C@]2(C[C@H](COc3cccc(Cl)n3)C2)[C@@H](O)[C@H]1O [Compound 30] |
| – | 3470 nM | Nc1ncnc2c1ccn2[C@@H]1C[C@]2(C[C@@H](COc3cccc(Cl)n3)C2)[C@@H](O)[C@H]1O [Compound 31] |
| – | 245 nM | Nc1nc2cc(C[C@H]3C[C@]4(C[C@@H](n5ccc6c(N)ncnc65)[C@H](O)[C@@H]4O)C3)ccc2cc1Br [Compound 33] |
| – | 4570 nM | Nc1ncnc2c1ncn2[C@@H]1O[C@]2(C[C@H](Cc3ccc4cc(Cl)cnc4c3)C2)[C@@H](O)[C@H]1O [Compound 44] |
| – | 5500 nM | Nc1ncnc2c1ncn2[C@@H]1O[C@]2(C[C@@H](Cc3ccc4cc(Cl)cnc4c3)C2)[C@@H](O)[C@H]1O [Compound 45] |
